Source: US9029403B2, “Treatment of ovarian cancer with benzylidenebenzohydrazides” (Memorial Sloan-Kettering Cancer Center, priority 2011, dated 2015)

Tested on: NSG mice
Experiment: In vivo toxicity in NSG mice
Details: intraperitoneal, 1, 2.5, 5, 10, 20 or 40 mg/kg, once or three times a week for 4 weeks
Method: The compound designated example 10 above was tested in vivo for toxicity in NSG mice. As used herein, NSG and NSG mice mean the NOD scid gamma (NSG) mice, or an equivalent, available from The Jackson Laboratory and which are the NOD.Cg-Prkdc^scid I12rg^tm1Wj1/SzJ JAX® Mice strain. The NSG mice were injected intraperitoneally with 1, 2.5, 5, 10, 20 or 40 mg/kg of the compound designated example 10 above for once or three times a week for 4 weeks.

Cc1ccc(C(=O)N/N=C/c2c(O)ccc3ccccc23)cn1 [example 10]
overt toxicity: no overt toxicity
